Measured values reported in PMC8246065 (The EMBO Journal, 2021).

Key:
NOD1∆LRR = molecular target: T1, NOD1∆LRR (Homo sapiens, UniProt Q9Y239); assay: MST with cell lysates expressing NOD1 mutants; format: binding; conditions: Fig EV5D
T1 sequence (Q9Y239 1-531 limits assumed): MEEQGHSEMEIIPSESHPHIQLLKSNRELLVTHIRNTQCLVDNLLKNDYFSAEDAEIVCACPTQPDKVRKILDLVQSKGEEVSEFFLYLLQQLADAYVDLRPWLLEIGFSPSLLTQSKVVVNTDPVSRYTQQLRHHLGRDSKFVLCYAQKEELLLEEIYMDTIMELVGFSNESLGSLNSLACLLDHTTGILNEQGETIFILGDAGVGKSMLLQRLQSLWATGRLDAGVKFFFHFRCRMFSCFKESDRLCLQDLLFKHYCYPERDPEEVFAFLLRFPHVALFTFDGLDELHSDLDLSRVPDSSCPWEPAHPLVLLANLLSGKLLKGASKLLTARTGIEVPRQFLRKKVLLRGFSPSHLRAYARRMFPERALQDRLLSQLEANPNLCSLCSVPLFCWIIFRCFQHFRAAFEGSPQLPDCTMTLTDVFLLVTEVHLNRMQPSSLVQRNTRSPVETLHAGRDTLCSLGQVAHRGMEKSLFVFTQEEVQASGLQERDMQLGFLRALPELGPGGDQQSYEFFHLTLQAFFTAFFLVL
Description: Binding of NOD1, NOD2, GFP, or NLRP3‐GFP to different ligands was measured by microscale thermophoresis (MST). 20 nM GFP or GFP‐tagged proteins in MST buffer (PBS pH 7.4, containing 0.5% NP‐40 and 10 mM DTT) was incubated with different concentrations of ligands. Immediately, samples were loaded into standard glass capillaries (NanoTemper) and thermophoresis analysis was performed on a NanoTemper Monolith NT.115 instrument (40% LED, 80% MST power) at 22°C. A laser on‐time of 30 s and a laser off‐time of 5 s were used. The experiment was performed in triplicates, and the MST curves were fitted using NT analysis software to obtain the K d values.

[1] = system: HEK293T WT and NOD1/2 KO NF‐κB reporter cells; assay: NF-κB luciferase assay and IL8 qRT-PCR in HEK293T WT and NOD1/2 KO cells; format: cell-based, human; conditions: cytosolic S1P, HEK293T WT vs NOD1/2 KO
Description: HEK293T WT and NOD1/2 KO NF‐κB reporter cells were seeded in 96‐well plates and stimulated with various stressors for 8 h. Then, cells were lysed in lysis buffer (Thermo Fisher Scientific) and luciferase activities were determined with firefly luciferase glow kit (Thermo Fisher Scientific) according to the manufacturer’s instructions. Luciferase activities were normalized to the amount of protein determined with Coomassie Plus kit (Thermo Fisher Scientific). Fold inductions were calculated against normalized luciferase activities of corresponding controls.
Total RNA was isolated with TRIzol reagent, as described by the manufacturer (Invitrogen). RNA (1 μg) was used to generate cDNA via the iScript cDNA Synthesis Kit (Bio‐Rad), and qRT–PCR was performed using Power SYBR Green Master Mix (Applied Biosystems) in a StepOne Plus thermocycler (Applied Biosystems). The average threshold cycle (Ct) of quadruplicate reactions was employed for all subsequent calculations using the ΔΔCt method. Gene expression was normalized to glyceraldehyde‐3‐phosphate dehydrogenase (GAPDH), and fold changes were calculated against corresponding controls. qRT–PCR data were representative of at least three independent experiments, with at least 2 technical replicates per experiment. […]

BMDMs = assay: Il6 expression and multiplex cytokine production in WT, Nod1/2 KO and Rip2 KO BMDMs; format: cell-based, mice; conditions: S1P 10 µM with digitonin (2.5 µg/ml); WT vs Nod1/2 KO and Rip2 KO
Description: The human monocytic cell line THP‐1 was obtained from the American Type Culture Collection (ATCC, TIB‐202) and maintained in RPMI 1640 (Gibco, 31870) with 10% (v:v) heat‐inactivated fetal bovine serum (FBS, Sigma‐Aldrich, F0804), 1 mM sodium pyruvate (Gibco, 11360070), 2 mM L‐glutamine (Gibco, 25030081), 10 mM HEPES buffer (Gibco, 15630080), pH 7.2‐7.5, and 50 µM 2‐mercaptoethanol (Gibco, 31350010). To differentiate THP‐1 into macrophage‐like cells, THP‐1 cells were stimulated with 50 ng/ml phorbol 12‐myristate 13‐acetate (Sigma‐Aldrich, P8139) for 24 h and then incubated with fresh medium for another 48 h. HEK293T WT and HEK293T NOD1/2 dKO cells were generated as described (Dagil et al, 2016). […]
Total RNA was isolated with TRIzol reagent, as described by the manufacturer (Invitrogen). […] Gene expression was normalized to glyceraldehyde‐3‐phosphate dehydrogenase (GAPDH), and fold changes were calculated against corresponding controls. qRT–PCR data were representative of at least three independent experiments, with at least 2 technical replicates per experiment. […]

NOD1/2-RIP2 interaction = assay: GFP immunoprecipitation of NOD1/2 and Western blot for RIP2; format: cell-based, human; conditions: S1P 20 µM with digitonin, 1 h
Description: HeLa NOD1 or NOD2 cells were grown overnight and afterward treated with doxycycline overnight to induce NOD1 or NOD2 expression. Cells of one 10‐cm dish were lysed with 500 µl of lysis buffer (25 mM Tris–HCl, pH 7.5, 150 mM NaCl, 1 mM EDTA, 1% NP‐40, and 5% glycerol) supplemented with protease inhibitors (Roche, 05892791001) on ice for 20 min. Lysates were centrifuged at 16,000 × g at 4°C for 10 min, and supernatants were mixed with GFP‐Trap agarose (ChromoTek GmbH, gta‐20) overnight at 4°C. Afterward, agaroses were washed twice with PBS and boiled with sample buffer for SDS–PAGE. For lipid‐coated beads IP, lipid‐coated beads were incubated with supernatants for 2 h at room temperature and then washed with lysis buffer for three times and boiled with sample buffer for SDS–PAGE.

CCCCCCCCCCCCC/C=C/[C@@H](O)[C@@H](N)COP(=O)(O)O [S1P, sphingosine‐1‐phosphate]
Interaction with NOD1∆LRR by MST (NOD1∆LRR): still interacted
NF-κB activation and IL8 expression [1]: induced NOD1/2‐dependent NF‐κB activation and IL8 expression
Il6 expression and production of IL6, CXCL2, CCL5 and IL16 (BMDMs): markedly impaired in Nod1/2 KO and Rip2 KO BMDMs
Interaction between NOD1/2 and RIP2 (NOD1/2-RIP2 interaction): stimulated the interaction between NOD1/2 and RIP2
